Values joined by “and” are separate entries in the source; they are usually repeats but may differ in a detail not shown here. Equal values may be shown once.
Experiments:
anti-GBM exposed mice = experiment: Anti-GBM induced glomerulonephritis in mice; assay type: in vivo, mouse; details: vs vehicle
human PPARγ = human PPARγ (Homo sapiens, UniProt P37231); experiment: cell-based
CCl4-exposed mice = experiment: Carbon tetrachloride (CCl4)-induced liver fibrosis in mice; assay type: in vivo, mouse; details: vs vehicle
Description: Mice were allowed to habituate for at least 5 days prior to experimentation.
Sunflower oil (twice a week for 3 weeks, ip)/vehicle (once a day for 22 days po), n=7, • 2. […] CCl4 (3.5 mL/kg, twice a week for 3 weeks, ip)/vehicle (once a day for 22 days po), n=8 • 5.
Two days a week for 3 weeks, mice were intraperitoneally administered in the morning with either 100 μL of CCl4 (3.5 mL kg in sunflower oil (v/v, 1/11)) or 100 μL of sunflower oil.
Measured Parameters Collagen
mRNA extraction was performed on small frozen liver samples (50-100 mg).

bleomycin-exposed mice = experiment: Bleomycin-induced pulmonary fibrosis in mice; details: vs vehicle
Description: At the end of the treatment, animals were sacrificed and plasma samples and livers were harvested. Expression of genes that are known to be implicated in the pulmonary inflammation process was quantified and plasmatic levels of lung parameters were measured.
The animals were housed in groups of 3-10 in polypropylene cages (floor area=1032 cm^2) under standard conditions: room temperature (22±2° C.), hygrometry (55±10%), light/dark cycle (12 h/12 h), air replacement (15-20 volumes/hour), water and food (SDS, RM1) ad libitum. Mice were allowed to accommodate themselves for at least 5 days prior to the experimentation. Mice were numbered by marking their tail using indelible markers.
Bleomycin (Laboratoire Bellon) was dissolved in 0.9% NaCl (CDM Lavoisier, France) just before use.
On day 14, 2 hours after dosing, animals were anaesthetised with pentobarbital (60 mg/kg, ip) and blood was collected using cardiac puncture. […] Blood sampling (0.9 mL of total blood) was placed in pre-chilled 2-mL lithium-heparin collection tubes. The blood samples were gently mixed, placed on crushed ice and centrifuged within 30 min of sampling at approximately 1500×g for 10 min at approximately +4° C. For each blood sampling, the resultant plasma was separated into 2 aliquots (at least 100 μL each) and transferred using disposable plastic material into polypropylene tubes. The samples were immediately transferred in the upright position to a freezer where they were kept at −20° C.
After terminal blood sampling, lung tissue was removed: • A first tissue sample (middle lobe) was harvested and fixed with paraformaldehyde, and kept at 5±3° C. • A second tissue sample (right lobe) was frozen in liquid nitrogen and kept at −20° C.
For the quantification of collagen, sections were stained with Picro-Sirius red and counterstained with Mayer's haematoxylin. […] For all slides, analysis was performed by a single experimenter strictly in the same conditions.
mRNA extraction was performed on small frozen lung samples (50-100 mg). Briefly, samples were cryogenically ground with mortar and pestle. […] RNA quantity was determined with Nanodrop (ND2000 Thermo Scientific) and RNA quality was verified with Bioanalyzer (2100 Agilent Technology).
Real Time PCR was performed on ABI PRISM 7900 apparatus Raw data from ABI7900 were exported in text format. […] Each RNA samples were reverse transcribed and quantified in triplicate.
Samples of lung and supernatants were kept on ice during all experiment. For extraction, the manufacturer recommends 10 mg of tissue for 100 μl T-Per+1 μl “Halt-protease” (100×).
50 ml of T-Per buffer were prepared, to which 500 μl of “Halt-protease” (100×) were added, and the mixture was kept on ice. Samples of 50 to 70 mg of lung just thawed were weighed and cut into small pieces, and 1 ml of cold PBS was added to wash the tissue. The mixture was centrifuged at 500 g during 5 min at 4° C., and the supernatant was discarded. 100 μl/10 mg of T-Per+antiproteases (100×) were added, crushing the lung with a Potter, with 5 or 6 twists, up and down. The mixture was centrifuged at 10000 g during 5 min at 4° C. The supernatant was removed, aliquoted and kept at −20° C. for the subsequent measurement of biomarkers.
All proteins were quantified with ELISA Kit, according to the instructions of the manufacturers: • osteopontin: Quantikine Mouse Osteopontin immunoassay, R&D SYSTEMS®, Ref:MOST00 • MCP-1: Quantikine Mouse CCL2/JE/MCP-1 ELISA Kit, R&D SYSTEMS®, ref: MJE00 • TIMP-1: Mouse TIMP-1, R&D SYSTEMS®, Ref: TM100.
All parameters were analysed using Graphpad software (version 5.1). The parameters were analysed as followed: • Using one-way ANOVA (treatment) to compare groups (1, 2 and 3). […] When ANOVA was found significant, a Dunnett's test was used to compare group 1 to group 4, to group 5, to group 6 and to group 7).

human PPARα = target: T1, human PPARα (Homo sapiens, UniProt Q07869); experiment: Transient transactivation assay, Cos-7 cells, chimeric PPARα-Gal4, luciferase reporter; assay type: cell-based; details: Gal4 chimera, mean of 6 experiments
T1 sequence (Q07869 200-468 limits assumed): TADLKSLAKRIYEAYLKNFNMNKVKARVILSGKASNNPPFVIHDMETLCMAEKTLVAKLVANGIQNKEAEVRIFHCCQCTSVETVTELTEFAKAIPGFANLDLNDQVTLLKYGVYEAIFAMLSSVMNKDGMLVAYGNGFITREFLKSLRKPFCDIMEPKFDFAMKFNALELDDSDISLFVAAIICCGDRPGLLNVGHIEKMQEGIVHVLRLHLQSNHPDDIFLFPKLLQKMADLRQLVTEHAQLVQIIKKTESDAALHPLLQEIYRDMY
Description: (§1) Transfections were performed by a chemical agent (Jet PEI).

mouse PPARα = target: T2, mouse PPARα (Mus musculus, UniProt P23204); experiment: as above; assay type: cell-based; details: Gal4 chimera, mean of 6 experiments
T2 sequence (P23204 200-468 limits assumed): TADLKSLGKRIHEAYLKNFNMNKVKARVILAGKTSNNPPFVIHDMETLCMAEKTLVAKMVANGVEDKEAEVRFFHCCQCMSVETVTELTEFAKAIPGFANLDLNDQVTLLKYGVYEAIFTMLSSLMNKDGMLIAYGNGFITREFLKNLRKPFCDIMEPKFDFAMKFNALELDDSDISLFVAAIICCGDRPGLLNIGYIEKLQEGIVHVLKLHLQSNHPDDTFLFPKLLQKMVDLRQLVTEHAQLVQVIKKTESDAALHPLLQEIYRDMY
Description: as §1

[1] = test system: primary human lung fibroblasts; experiment: PDGF-induced proliferation, EdU incorporation assay; assay type: cell-based; details: Fibroblast, 24 h, NC: not converged
Description: (§2) The ability of compound A to inhibit PDGF-induced lung and dermal fibroblasts proliferation was determined by performing EdU (5-ethynyl-2′-deoxyuridine) incorporation assays. These assays were carried out using primary human lung or skin fibroblasts (Promocell). The cells were plated in 96-well plates in full growth medium for 24 h, followed by 24 h starvation in serum-free medium. The medium was then replaced by fresh medium containing PDGF and compound A to be tested (at concentrations ranging from 10^−4 M to 4.5 10^−8 M) for another 24 h. EdU was added to the cells for the last 16 h of the compound treatment. The culture medium was then removed, the cells were fixed with formaldehyde and the EdU incorporated in the DNA of diving cells was quantified using fluorescent Click-it assay according to the manufacturer's instructions (Invitrogen). […] Results were expressed as % of EdU-positive cells out of the total cell number. The results present the mean of biological triplicates. Dose-effect curves and IC50 values were calculated using the GraphPad Prism software.

[2] = test system: primary human dermal fibroblasts; experiment: as above; assay type: cell-based; details: Fibroblast, 24 h, NC: not converged
Description: as §2

mouse PPARδ = target: T3, mouse PPARδ (Mus musculus, UniProt P35396); experiment: Transient transactivation assay, Cos-7 cells, chimeric PPARδ-Gal4, luciferase reporter; assay type: cell-based; details: Gal4 chimera, mean of 5 experiments, estimated (plateau not reached)
T3 sequence (P35396 210-440 limits assumed): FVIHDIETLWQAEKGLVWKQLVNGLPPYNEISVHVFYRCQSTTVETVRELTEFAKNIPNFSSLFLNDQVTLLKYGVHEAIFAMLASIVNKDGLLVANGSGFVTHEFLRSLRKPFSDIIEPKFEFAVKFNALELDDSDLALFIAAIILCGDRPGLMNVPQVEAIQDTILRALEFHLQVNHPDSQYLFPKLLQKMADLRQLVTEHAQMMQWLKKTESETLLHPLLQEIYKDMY
Description: as §1

human PPARδ = target: T4, human PPARδ (Homo sapiens, UniProt Q03181); experiment: as above; assay type: cell-based; details: Gal4 chimera, mean of 6 experiments
T4 sequence (Q03181 211-441 limits assumed): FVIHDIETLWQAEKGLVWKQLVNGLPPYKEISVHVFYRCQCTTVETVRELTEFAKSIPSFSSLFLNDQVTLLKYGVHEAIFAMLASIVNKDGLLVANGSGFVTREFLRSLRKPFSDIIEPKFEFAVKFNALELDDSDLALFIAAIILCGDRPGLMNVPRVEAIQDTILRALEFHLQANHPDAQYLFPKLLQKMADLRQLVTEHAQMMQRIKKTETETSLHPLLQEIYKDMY
Description: as §1

Chain of human PPARγ (P37231 238-505 limits assumed): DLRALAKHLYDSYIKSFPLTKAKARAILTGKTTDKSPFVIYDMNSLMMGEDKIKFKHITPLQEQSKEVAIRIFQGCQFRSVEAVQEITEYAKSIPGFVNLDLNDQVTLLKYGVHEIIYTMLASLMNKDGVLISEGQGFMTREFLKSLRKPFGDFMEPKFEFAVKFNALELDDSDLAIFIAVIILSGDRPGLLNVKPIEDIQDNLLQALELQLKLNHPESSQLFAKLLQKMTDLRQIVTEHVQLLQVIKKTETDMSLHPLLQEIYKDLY

Structure (SMILES): O=C(O)CCCc1cc2cc(Cl)ccc2n1S(=O)(=O)c1ccc2ncsc2c1 [compound A, 5-Chloro-1-[(6-benzothiazolyl)sulfonyl]-1H-indole-2-butanoic acid]
- Col1a expression (kidney) (anti-GBM exposed mice; 30 mg/kg/day po 7 days): reduced
- Col3a expression (kidney) (anti-GBM exposed mice; 30 mg/kg/day po 7 days): reduced
- kidney MCP-1 levels (anti-GBM exposed mice; 30 mg/kg/day po 7 days): reduced
- kidney osteopontin levels (anti-GBM exposed mice; 30 mg/kg/day po 7 days): reduced
- serum urea levels (anti-GBM exposed mice; 30 mg/kg/day po 7 days): reduced
- urinary albumin levels (anti-GBM exposed mice; 30 mg/kg/day po 7 days): reduced
- urinary volume (anti-GBM exposed mice; 30 mg/kg/day po 7 days): reduced urinary volume compared to vehicle without reaching significance
- Col1a expression (kidney) (anti-GBM exposed mice; 100 mg/kg/day po 7 days): significantly inhibited Col1a expression
- Col3a expression (kidney) (anti-GBM exposed mice; 100 mg/kg/day po 7 days): significantly inhibited Col3a expression
- TGFβR-1 expression (kidney) (anti-GBM exposed mice; 100 mg/kg/day po 7 days): significantly inhibited TGFβ-R1 expression
- kidney MCP-1 levels (anti-GBM exposed mice; 100 mg/kg/day po 7 days): significantly reduced MCP-1 levels
- kidney osteopontin levels (anti-GBM exposed mice; 100 mg/kg/day po 7 days): significantly reduced osteopontin levels
- number of pathological glomeruli (anti-GBM exposed mice; 100 mg/kg/day po 7 days): significantly reduced the number of pathological glomeruli
- serum urea levels (anti-GBM exposed mice; 100 mg/kg/day po 7 days): significantly reduced urea levels
- urinary albumin levels (anti-GBM exposed mice; 100 mg/kg/day po 7 days): reduced albumin levels compared to vehicle without reaching significance
- urinary volume (anti-GBM exposed mice; 100 mg/kg/day po 7 days): reduced urinary volume compared to vehicle without reaching significance
- EC50 (human PPARγ): 180 nM
- Col1a expression (liver) (CCl4-exposed mice; 30 mg/kg/day po 22 days): significantly inhibited the expression of Col1a
- TGFβ-1 expression (liver) (CCl4-exposed mice; 30 mg/kg/day po 22 days): significantly inhibited the expression of TGFβ-1
- decrease of collagen levels (hepatic fibrosis) (CCl4-exposed mice; 30 mg/kg/day po 22 days): 80%
- fibronectin expression (liver) (CCl4-exposed mice; 30 mg/kg/day po 22 days): significantly inhibited the expression of fibronectin
- plasma triglycerides (CCl4-exposed mice; 30 mg/kg/day po 22 days): significantly reduced plasma triglycerides
- Col1a expression (liver) (CCl4-exposed mice; 100 mg/kg/day po 22 days): significantly inhibited the expression of Col1a
- MCP-1 expression (liver) (CCl4-exposed mice; 100 mg/kg/day po 22 days): significantly inhibited the expression of MCP-1
- TGFβ-1 expression (liver) (CCl4-exposed mice; 100 mg/kg/day po 22 days): significantly inhibited the expression of TGFβ-1
- fibronectin expression (liver) (CCl4-exposed mice; 100 mg/kg/day po 22 days): significantly inhibited the expression of fibronectin
- plasma triglycerides (CCl4-exposed mice; 100 mg/kg/day po 22 days): significantly reduced plasma triglycerides
- α-SMA expression (liver) (CCl4-exposed mice; 100 mg/kg/day po 22 days): inhibited the expression of α-SMA compared to vehicle without reaching significance
- decrease of collagen levels (hepatic fibrosis) (CCl4-exposed mice; 100 mg/kg/day po 22 days, 100 mg/kg/day): 89% and 90%
- MCP-1 expression (lung) (bleomycin-exposed mice; 30 mg/kg/day po 15 days): inhibited MCP-1 expression compared to vehicle without reaching significance
- TIMP-1 expression (lung) (bleomycin-exposed mice; 30 mg/kg/day po 15 days): inhibited TIMP-1 expression compared to vehicle without reaching significance
- lung MCP-1 levels (bleomycin-exposed mice; 30 mg/kg/day po 15 days): reduced MCP-1 levels compared to vehicle without reaching significance
- lung TIMP-1 levels (bleomycin-exposed mice; 30 mg/kg/day po 15 days): significantly reduced TIMP-1 levels
- lung osteopontin levels (bleomycin-exposed mice; 30 mg/kg/day po 15 days): reduced osteopontin levels compared to vehicle without reaching significance
- osteopontin expression (lung) (bleomycin-exposed mice; 30 mg/kg/day po 15 days): significantly inhibited osteopontin expression
- Col1a expression (lung) (bleomycin-exposed mice; 100 mg/kg/day po 15 days): significantly inhibited Col1a expression
- Col3a expression (lung) (bleomycin-exposed mice; 100 mg/kg/day po 15 days): significantly inhibited Col3a expression
- MCP-1 expression (lung) (bleomycin-exposed mice; 100 mg/kg/day po 15 days): inhibited MCP-1 expression compared to vehicle without reaching significance
- TGFβR-1 expression (lung) (bleomycin-exposed mice; 100 mg/kg/day po 15 days): significantly inhibited TGFβR-1 expression
- TIMP-1 expression (lung) (bleomycin-exposed mice; 100 mg/kg/day po 15 days): inhibited TIMP-1 expression compared to vehicle without reaching significance
- collagen deposition (lung) (bleomycin-exposed mice; 100 mg/kg/day po 15 days): significantly decreased collagen deposition levels
- fibronectin expression (lung) (bleomycin-exposed mice; 100 mg/kg/day po 15 days): significantly inhibited fibronectin expression
- lung MCP-1 levels (bleomycin-exposed mice; 100 mg/kg/day po 15 days): reduced MCP-1 levels compared to vehicle without reaching significance
- lung TIMP-1 levels (bleomycin-exposed mice; 100 mg/kg/day po 15 days): significantly reduced TIMP-1 levels
- lung osteopontin levels (bleomycin-exposed mice; 100 mg/kg/day po 15 days): reduced osteopontin levels compared to vehicle without reaching significance
- osteopontin expression (lung) (bleomycin-exposed mice; 100 mg/kg/day po 15 days): significantly inhibited osteopontin expression
- EC50 (human PPARα): 920 nM
- EC50 (mouse PPARα): 290 nM
- IC50 [1]: 10.9 µM
- IC50 [2]: 11.5 µM
- EC50 (mouse PPARδ): 2000 nM
- EC50 (human PPARδ): 530 nM
